Values quoted from earlier work in patent publication US20060264384A1, “Compositions and methods for treatment for neoplasms” (priority 2005, published 2006).

Compound	solubility in water	solubility in organic solvents
CC[C@@]1(O)C(=O)OCc2c1cc1n(c2=O)Cc2cc3c(CN(C)C)c(O)ccc3nc2-1 [Topotecan]	up to 1 mg/ml	
CCc1c2c(nc3ccc(OC(=O)N4CCC(N5CCCCC5)CC4)cc13)-c1cc3c(c(=O)n1C2)COC(=O)[C@]3(O)CC [Irinotecan]	slightly soluble	slightly soluble
CCN(CC)C(=S)SSC(=S)N(CC)CC [Disulfiram]	barely soluble in water	soluble in solvents such as alcohol, ether, acetone, and benzene
